Legend:
Assay in all cases: kinome screen (33PanQinase)
Assay type in all cases: biochemical
[1] = target: T1, TRKB (Homo sapiens, UniProt Q16620)
T1 construct: purchased Reaction Biology Europe GmbH (formerly ProQinase)
Description: (§1) The Kinome Screening was performed by Reaction Biology Europe GmbH (http://reactionbiology.com; Freiburg i. Br., Germany).

[2] = target: T2, RIPK5 (Homo sapiens, UniProt Q6XUX3)
T2 construct: purchased Reaction Biology Europe GmbH (formerly ProQinase)
T2 sequence (Q6XUX3 1-929): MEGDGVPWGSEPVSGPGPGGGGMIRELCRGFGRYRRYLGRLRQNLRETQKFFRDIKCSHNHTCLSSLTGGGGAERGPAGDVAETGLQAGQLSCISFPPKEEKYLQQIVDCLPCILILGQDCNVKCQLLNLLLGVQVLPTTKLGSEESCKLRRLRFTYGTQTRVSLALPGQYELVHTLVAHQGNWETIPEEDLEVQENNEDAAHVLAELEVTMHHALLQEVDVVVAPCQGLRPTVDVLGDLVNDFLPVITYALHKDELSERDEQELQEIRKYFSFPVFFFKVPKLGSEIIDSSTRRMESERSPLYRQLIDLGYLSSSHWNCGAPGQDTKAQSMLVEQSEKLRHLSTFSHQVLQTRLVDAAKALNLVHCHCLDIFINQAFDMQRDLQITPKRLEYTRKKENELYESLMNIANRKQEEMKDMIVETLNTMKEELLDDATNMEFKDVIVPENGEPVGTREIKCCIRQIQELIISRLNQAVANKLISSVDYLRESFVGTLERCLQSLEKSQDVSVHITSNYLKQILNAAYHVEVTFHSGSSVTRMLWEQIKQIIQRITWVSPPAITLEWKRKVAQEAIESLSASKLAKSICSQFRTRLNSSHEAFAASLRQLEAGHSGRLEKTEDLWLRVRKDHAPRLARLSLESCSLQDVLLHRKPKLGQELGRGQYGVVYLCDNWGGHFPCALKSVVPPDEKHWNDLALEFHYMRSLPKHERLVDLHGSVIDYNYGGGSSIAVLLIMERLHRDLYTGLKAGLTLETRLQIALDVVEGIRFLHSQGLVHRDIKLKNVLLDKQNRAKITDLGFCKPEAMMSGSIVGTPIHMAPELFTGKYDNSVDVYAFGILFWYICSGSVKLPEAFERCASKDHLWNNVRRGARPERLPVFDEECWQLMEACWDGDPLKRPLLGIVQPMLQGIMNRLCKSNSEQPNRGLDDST
Description: as §1

[3] = target: T3, GSG2 (Homo sapiens, UniProt Q8TF76)
T3 construct: purchased Reaction Biology Europe GmbH (formerly ProQinase)
T3 sequence (Q8TF76 1-798): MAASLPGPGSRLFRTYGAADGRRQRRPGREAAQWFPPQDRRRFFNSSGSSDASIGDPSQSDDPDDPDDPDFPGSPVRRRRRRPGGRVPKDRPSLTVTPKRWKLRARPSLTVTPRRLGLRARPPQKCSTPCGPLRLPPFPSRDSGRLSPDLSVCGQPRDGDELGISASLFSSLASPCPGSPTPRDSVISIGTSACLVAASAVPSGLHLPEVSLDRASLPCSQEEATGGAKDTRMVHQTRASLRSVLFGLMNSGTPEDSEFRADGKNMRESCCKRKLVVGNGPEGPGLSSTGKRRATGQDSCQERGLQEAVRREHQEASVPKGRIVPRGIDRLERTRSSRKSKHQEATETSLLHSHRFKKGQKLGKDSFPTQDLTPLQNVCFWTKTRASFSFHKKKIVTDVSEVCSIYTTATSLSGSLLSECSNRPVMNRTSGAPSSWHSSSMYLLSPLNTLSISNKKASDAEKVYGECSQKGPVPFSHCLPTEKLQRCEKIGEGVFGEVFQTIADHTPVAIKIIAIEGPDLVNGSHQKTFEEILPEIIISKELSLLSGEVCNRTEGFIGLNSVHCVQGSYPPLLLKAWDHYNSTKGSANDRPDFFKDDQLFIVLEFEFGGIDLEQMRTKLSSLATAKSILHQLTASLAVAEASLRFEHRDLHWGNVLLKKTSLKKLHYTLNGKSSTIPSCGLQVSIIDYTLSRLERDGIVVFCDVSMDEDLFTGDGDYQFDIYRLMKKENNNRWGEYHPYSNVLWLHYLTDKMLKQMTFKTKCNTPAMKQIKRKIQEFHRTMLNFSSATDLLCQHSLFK
Description: as §1

[4] = target: T4, JNK2 (Homo sapiens, UniProt P45984)
T4 construct: purchased Reaction Biology Europe GmbH (formerly ProQinase)
T4 sequence (P45984 whole entry): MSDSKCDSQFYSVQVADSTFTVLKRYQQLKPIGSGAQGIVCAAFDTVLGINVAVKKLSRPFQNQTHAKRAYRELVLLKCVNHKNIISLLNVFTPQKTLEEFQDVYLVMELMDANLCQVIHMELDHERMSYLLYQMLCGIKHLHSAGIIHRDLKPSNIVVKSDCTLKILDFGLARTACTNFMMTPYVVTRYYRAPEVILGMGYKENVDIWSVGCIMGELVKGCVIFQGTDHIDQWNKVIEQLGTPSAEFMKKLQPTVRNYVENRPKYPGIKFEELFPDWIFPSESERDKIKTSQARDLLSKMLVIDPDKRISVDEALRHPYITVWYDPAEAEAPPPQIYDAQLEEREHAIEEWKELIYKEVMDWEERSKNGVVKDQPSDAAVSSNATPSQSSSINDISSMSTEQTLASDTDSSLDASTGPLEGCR
Description: as §1

[5] = target: T5, TLK2 (Homo sapiens, UniProt Q86UE8)
T5 construct: purchased Reaction Biology Europe GmbH (formerly ProQinase)
T5 sequence (Q86UE8 whole entry): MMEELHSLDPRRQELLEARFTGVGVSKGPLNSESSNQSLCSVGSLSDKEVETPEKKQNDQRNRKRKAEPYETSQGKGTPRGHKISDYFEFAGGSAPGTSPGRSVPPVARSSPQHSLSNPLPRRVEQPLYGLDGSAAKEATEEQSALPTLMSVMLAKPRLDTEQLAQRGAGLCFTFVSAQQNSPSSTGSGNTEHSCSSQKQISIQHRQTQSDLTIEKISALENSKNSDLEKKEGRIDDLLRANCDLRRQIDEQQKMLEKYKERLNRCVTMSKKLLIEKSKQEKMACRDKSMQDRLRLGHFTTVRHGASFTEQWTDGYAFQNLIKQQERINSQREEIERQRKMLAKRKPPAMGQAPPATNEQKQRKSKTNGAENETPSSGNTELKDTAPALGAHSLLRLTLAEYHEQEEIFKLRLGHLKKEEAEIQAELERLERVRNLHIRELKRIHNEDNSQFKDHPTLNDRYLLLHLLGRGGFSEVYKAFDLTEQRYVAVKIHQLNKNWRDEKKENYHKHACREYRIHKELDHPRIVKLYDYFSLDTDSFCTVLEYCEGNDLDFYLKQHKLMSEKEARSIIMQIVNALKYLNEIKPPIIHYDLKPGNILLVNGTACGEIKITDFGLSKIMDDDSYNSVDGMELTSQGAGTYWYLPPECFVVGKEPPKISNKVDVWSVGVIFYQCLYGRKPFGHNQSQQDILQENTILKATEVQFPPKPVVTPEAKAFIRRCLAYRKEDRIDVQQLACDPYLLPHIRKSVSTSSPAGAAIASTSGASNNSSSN
Description: as §1

[6] = target: T6, BMPR1A (Homo sapiens, UniProt P36894)
T6 construct: purchased Reaction Biology Europe GmbH (formerly ProQinase)
T6 sequence (P36894 24-532): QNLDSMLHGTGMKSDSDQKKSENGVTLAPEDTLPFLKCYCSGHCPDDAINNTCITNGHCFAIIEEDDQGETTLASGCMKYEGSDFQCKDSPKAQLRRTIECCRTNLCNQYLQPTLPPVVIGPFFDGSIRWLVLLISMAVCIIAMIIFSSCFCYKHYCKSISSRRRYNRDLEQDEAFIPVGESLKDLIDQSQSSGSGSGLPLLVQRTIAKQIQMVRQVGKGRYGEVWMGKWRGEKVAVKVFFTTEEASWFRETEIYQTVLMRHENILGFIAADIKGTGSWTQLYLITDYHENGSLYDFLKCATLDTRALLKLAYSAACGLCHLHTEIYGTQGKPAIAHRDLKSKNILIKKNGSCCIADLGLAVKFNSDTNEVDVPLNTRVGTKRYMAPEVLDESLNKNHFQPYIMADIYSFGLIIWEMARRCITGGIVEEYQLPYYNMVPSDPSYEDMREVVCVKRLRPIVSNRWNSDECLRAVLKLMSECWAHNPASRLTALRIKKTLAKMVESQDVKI
Description: as §1

[7] = target: T7, CSK (Homo sapiens, UniProt P41240)
T7 construct: purchased Reaction Biology Europe GmbH (formerly ProQinase)
T7 sequence (P41240 whole entry): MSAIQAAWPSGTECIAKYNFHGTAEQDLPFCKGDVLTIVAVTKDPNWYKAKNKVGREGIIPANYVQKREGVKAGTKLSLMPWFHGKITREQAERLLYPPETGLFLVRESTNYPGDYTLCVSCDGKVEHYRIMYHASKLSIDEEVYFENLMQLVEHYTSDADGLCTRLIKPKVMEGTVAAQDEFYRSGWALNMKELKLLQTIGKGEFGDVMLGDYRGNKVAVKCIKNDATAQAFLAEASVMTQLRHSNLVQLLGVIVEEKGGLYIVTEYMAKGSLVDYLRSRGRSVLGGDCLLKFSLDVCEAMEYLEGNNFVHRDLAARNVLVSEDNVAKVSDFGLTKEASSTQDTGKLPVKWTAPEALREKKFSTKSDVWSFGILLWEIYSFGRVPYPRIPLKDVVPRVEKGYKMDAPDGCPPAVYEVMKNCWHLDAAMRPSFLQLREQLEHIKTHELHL
Description: as §1

[8] = target: T8, MAPKAPK3 (Homo sapiens, UniProt Q16644)
T8 construct: purchased Reaction Biology Europe GmbH (formerly ProQinase)
T8 sequence (Q16644 whole entry): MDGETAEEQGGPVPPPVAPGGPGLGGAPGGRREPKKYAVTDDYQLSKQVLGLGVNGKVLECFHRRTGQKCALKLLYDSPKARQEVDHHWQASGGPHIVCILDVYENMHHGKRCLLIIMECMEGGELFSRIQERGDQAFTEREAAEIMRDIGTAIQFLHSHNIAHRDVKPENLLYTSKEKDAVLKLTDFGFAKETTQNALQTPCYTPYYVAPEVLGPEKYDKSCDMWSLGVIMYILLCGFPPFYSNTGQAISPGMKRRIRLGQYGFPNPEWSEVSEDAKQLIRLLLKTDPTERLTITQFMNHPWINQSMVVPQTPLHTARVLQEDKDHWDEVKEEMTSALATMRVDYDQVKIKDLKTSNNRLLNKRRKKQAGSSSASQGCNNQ
Description: as §1

[9] = target: T9, STK39 (Homo sapiens, UniProt Q9UEW8)
T9 construct: purchased Reaction Biology Europe GmbH (formerly ProQinase)
Description: as §1

T1 sequence (Q16620 32-822): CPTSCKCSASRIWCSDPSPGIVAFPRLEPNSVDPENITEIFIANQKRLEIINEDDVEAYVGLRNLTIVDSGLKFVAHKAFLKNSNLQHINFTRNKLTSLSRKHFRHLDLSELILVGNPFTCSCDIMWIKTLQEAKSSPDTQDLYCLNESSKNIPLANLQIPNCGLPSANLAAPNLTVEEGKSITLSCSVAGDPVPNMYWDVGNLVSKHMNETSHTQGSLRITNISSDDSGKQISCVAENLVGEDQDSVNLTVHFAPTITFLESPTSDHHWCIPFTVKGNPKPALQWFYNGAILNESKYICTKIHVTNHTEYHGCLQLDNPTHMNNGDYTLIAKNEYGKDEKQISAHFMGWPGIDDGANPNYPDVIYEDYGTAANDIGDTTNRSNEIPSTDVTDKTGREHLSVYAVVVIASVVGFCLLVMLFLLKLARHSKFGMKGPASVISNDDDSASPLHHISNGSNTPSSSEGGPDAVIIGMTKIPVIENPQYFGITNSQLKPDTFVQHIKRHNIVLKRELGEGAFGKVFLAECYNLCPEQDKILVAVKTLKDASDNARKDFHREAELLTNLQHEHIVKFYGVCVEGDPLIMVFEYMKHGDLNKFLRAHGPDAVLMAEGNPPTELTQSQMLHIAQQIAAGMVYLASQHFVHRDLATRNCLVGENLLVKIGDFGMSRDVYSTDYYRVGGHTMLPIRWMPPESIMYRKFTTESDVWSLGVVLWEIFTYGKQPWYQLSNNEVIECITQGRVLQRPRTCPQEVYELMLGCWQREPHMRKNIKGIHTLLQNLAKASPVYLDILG

COc1ccnc2[nH]cc(-c3cc(N)nc(N)c3)c12 [meriolin 16]
residual kinase activity ([1]; 0.03 µM): 68 % of control | residual kinase activity ([1]; 0.3 µM): 29 % of control | residual kinase activity ([2]; 0.03 µM): 101 % of control | residual kinase activity ([2]; 0.3 µM): 86 % of control | residual kinase activity ([3]; 0.03 µM): 2 % of control | residual kinase activity ([3]; 0.3 µM): 0 % of control | residual kinase activity ([4]; 0.03 µM): 78 % of control | residual kinase activity ([4]; 0.3 µM): 85 % of control | residual kinase activity ([5]; 0.03 µM): 111 % of control | residual kinase activity ([5]; 0.3 µM): 91 % of control | residual kinase activity ([6]; 0.03 µM): 94 % of control | residual kinase activity ([6]; 0.3 µM): 94 % of control | residual kinase activity ([7]; 0.03 µM): 114 % of control | residual kinase activity ([7]; 0.3 µM): 106 % of control | residual kinase activity ([8]; 0.03 µM): 99 % of control | residual kinase activity ([8]; 0.3 µM): 87 % of control | residual kinase activity ([9]; 0.03 µM): 77 % of control | residual kinase activity ([9]; 0.3 µM): 66 % of control

c1ccc(CNc2cc(-c3c[nH]c4ncccc34)ccn2)cc1 [meriolin 36]
residual kinase activity ([1]; 0.3 µM): 10 % of control | residual kinase activity ([1]; 3 µM): 2 % of control | residual kinase activity ([2]; 0.3 µM): 58 % of control | residual kinase activity ([2]; 3 µM): 16 % of control | residual kinase activity ([3]; 0.3 µM): 2 % of control | residual kinase activity ([3]; 3 µM): 0 % of control | residual kinase activity ([4]; 0.3 µM): 63 % of control | residual kinase activity ([4]; 3 µM): 29 % of control | residual kinase activity ([5]; 0.3 µM): 149 % of control | residual kinase activity ([5]; 3 µM): 88 % of control | residual kinase activity ([6]; 0.3 µM): 105 % of control | residual kinase activity ([6]; 3 µM): 61 % of control | residual kinase activity ([7]; 0.3 µM): 116 % of control | residual kinase activity ([7]; 3 µM): 71 % of control | residual kinase activity ([8]; 3 µM): 90 % of control | residual kinase activity ([9]; 0.3 µM): 40 % of control | residual kinase activity ([9]; 3 µM): 19 % of control
